In the supplement of paper PMC10883282:
± gives the standard deviation of the averaged measurements.

Assays:
Test in all cases: relative viability vs DMSO control (72 h) (fraction); higher = more viable cells
HS729 = system: HS729
Outline: (§1)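 Plates held 72 h at 37 °C and 5% CO2 contained sarcoma cell lines seeded in 384-well format to reach 80–90% confluence, plus 2.5 µl of serially diluted compound added after 24 h. Source plate concentrations ran from 10 mM to 0.0002 mM, with 0.1% DMSO as vehicle and a 5 µM positive control. Percent growth from ATPLite readings, averaged over up to triplicate wells, gave relative viability. Values were rescaled with 1 as full and 0 as none.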

HT1080 = system: HT1080
Outline: as §1

SW684 = system: SW684
Outline: as §1

KHOS-NP = system: KHOS-NP
Outline: as §1

A204 = system: A204
Outline: as §1

VA-ES-BJ = system: VA-ES-BJ
Outline: as §1

SW982 = system: SW982
Outline: as §1

SK-ES-1 = system: SK-ES-1
Outline: as §1

SK-LMS-1 = system: SK-LMS-1
Outline: as §1

SW872 = system: SW872
Outline: as §1

RD-ES = system: RD-ES
Outline: as §1

G401 = system: G401
Outline: as §1

FC(F)(F)c1ccc(CNc2ccc(Cc3c[nH]c4ncc(Cl)cc34)cn2)cn1 [Pexidartinib]
Details | relative viability
A204, 0.00017 µM | 1.14 ± 0.041
A204, 0.00051 µM | 1.14 ± 0.044
A204, 0.00152 µM | 1.09 ± 0.021
A204, 0.00457 µM | 1.08 ± 0.057
A204, 0.01372 µM | 1.07 ± 0.041
A204, 0.04115 µM | 1.08 ± 0.079
A204, 0.1235 µM | 1.05 ± 0.053
A204, 0.3704 µM | 0.898 ± 0.032
A204, 1.111 µM | 0.576 ± 0.0075
A204, 3.333 µM | 0.463 ± 0.027
A204, 10 µM | 0.393 ± 0.033
G401, 0.00017 µM | 1.03 ± 0.052
G401, 0.00051 µM | 1.036 ± 0.01
G401, 0.00152 µM | 1.03 ± 0.055
G401, 0.00457 µM | 1.05 ± 0.024
G401, 0.01372 µM | 1.02 ± 0.04
G401, 0.04115 µM | 1 ± 0.018
G401, 0.1235 µM | 0.685 ± 0.56
G401, 0.3704 µM | 0.9956 ± 0.0052
G401, 1.111 µM | 0.9873 ± 0.0054
G401, 3.333 µM | 0.95 ± 0.028
G401, 10 µM | 0.8332 ± 0.0041
HS729, 0.00017 µM | 1.05 ± 0.057
HS729, 0.00051 µM | 1.01 ± 0.027
HS729, 0.00152 µM | 1.01 ± 0.051
HS729, 0.00457 µM | 0.978 ± 0.033
HS729, 0.01372 µM | 0.955 ± 0.043
HS729, 0.04115 µM | 0.962 ± 0.043
HS729, 0.1235 µM | 0.903 ± 0.035
HS729, 0.3704 µM | 0.902 ± 0.022
HS729, 1.111 µM | 0.861 ± 0.032
HS729, 3.333 µM | 0.767 ± 0.048
HS729, 10 µM | 0.683 ± 0.035
HT1080, 0.00017 µM | 1.14 ± 0.034
HT1080, 0.00051 µM | 1.12 ± 0.041
HT1080, 0.00152 µM | 1.12 ± 0.022
HT1080, 0.00457 µM | 1.05 ± 0.017
HT1080, 0.01372 µM | 1.1 ± 0.038
HT1080, 0.04115 µM | 1.1 ± 0.022
HT1080, 0.1235 µM | 1.06 ± 0.031
HT1080, 0.3704 µM | 1.08 ± 0.035
HT1080, 1.111 µM | 1.05 ± 0.015
HT1080, 3.333 µM | 1.065 ± 0.0099
HT1080, 10 µM | 1.02 ± 0.018
KHOS-NP, 0.00017 µM | 1.106 ± 0.0045
KHOS-NP, 0.00051 µM | 1.1 ± 0.028
KHOS-NP, 0.00152 µM | 1.084 ± 0.0038
KHOS-NP, 0.00457 µM | 1.08 ± 0.023
KHOS-NP, 0.01372 µM | 1.07 ± 0.026
KHOS-NP, 0.04115 µM | 1.05 ± 0.023
KHOS-NP, 0.1235 µM | 1.05 ± 0.048
KHOS-NP, 0.3704 µM | 1.032 ± 0.0094
KHOS-NP, 1.111 µM | 1.024 ± 0.0097
KHOS-NP, 3.333 µM | 1.022 ± 0.003
KHOS-NP, 10 µM | 0.987 ± 0.051
RD-ES, 0.00017 µM | 0.973 ± 0.031
RD-ES, 0.00051 µM | 0.99 ± 0.013
RD-ES, 0.00152 µM | 1.01 ± 0.036
RD-ES, 0.00457 µM | 1.02 ± 0.032
RD-ES, 0.01372 µM | 1.02 ± 0.0067
RD-ES, 0.04115 µM | 0.982 ± 0.043
RD-ES, 0.1235 µM | 1.01 ± 0.05
RD-ES, 0.3704 µM | 0.998 ± 0.012
RD-ES, 1.111 µM | 0.977 ± 0.025
RD-ES, 3.333 µM | 0.959 ± 0.011
RD-ES, 10 µM | 0.969 ± 0.063
SK-ES-1, 0.00017 µM | 1.05 ± 0.086
SK-ES-1, 0.00051 µM | 1.03 ± 0.043
SK-ES-1, 0.00152 µM | 1.02 ± 0.024
SK-ES-1, 0.00457 µM | 1.07 ± 0.033
SK-ES-1, 0.01372 µM | 1.04 ± 0.043
SK-ES-1, 0.04115 µM | 1.06 ± 0.053
SK-ES-1, 0.1235 µM | 1.03 ± 0.022
SK-ES-1, 0.3704 µM | 1.03 ± 0.053
SK-ES-1, 1.111 µM | 0.978 ± 0.053
SK-ES-1, 3.333 µM | 1.02 ± 0.091
SK-ES-1, 10 µM | 0.915 ± 0.045
SK-LMS-1, 0.00017 µM | 1.03 ± 0.021
SK-LMS-1, 0.00051 µM | 1.06 ± 0.07
SK-LMS-1, 0.00152 µM | 1.05 ± 0.039
SK-LMS-1, 0.00457 µM | 1.04 ± 0.061
SK-LMS-1, 0.01372 µM | 1.03 ± 0.043
SK-LMS-1, 0.04115 µM | 1.03 ± 0.019
SK-LMS-1, 0.1235 µM | 1.05 ± 0.012
SK-LMS-1, 0.3704 µM | 1.02 ± 0.015
SK-LMS-1, 1.111 µM | 0.995 ± 0.025
SK-LMS-1, 3.333 µM | 1 ± 0.023
SK-LMS-1, 10 µM | 0.864 ± 0.021
SW684, 0.00017 µM | 1.14 ± 0.053
SW684, 0.00051 µM | 1.2 ± 0.013
SW684, 0.00152 µM | 1.19 ± 0.073
SW684, 0.00457 µM | 1.2 ± 0.052
SW684, 0.01372 µM | 1.15 ± 0.056
SW684, 0.04115 µM | 1.15 ± 0.064
SW684, 0.1235 µM | 1.16 ± 0.07
SW684, 0.3704 µM | 1.13 ± 0.051
SW684, 1.111 µM | 1.13 ± 0.045
SW684, 3.333 µM | 1.14 ± 0.042
SW684, 10 µM | 1.12 ± 0.035
SW872, 0.00017 µM | 1.12 ± 0.077
SW872, 0.00051 µM | 1.13 ± 0.056
SW872, 0.00152 µM | 1.1 ± 0.076
SW872, 0.00457 µM | 1.08 ± 0.08
SW872, 0.01372 µM | 1.05 ± 0.043
SW872, 0.04115 µM | 1.06 ± 0.1
SW872, 0.1235 µM | 1.05 ± 0.071
SW872, 0.3704 µM | 1.03 ± 0.055
SW872, 1.111 µM | 1.01 ± 0.061
SW872, 3.333 µM | 0.999 ± 0.049
SW872, 10 µM | 0.974 ± 0.064
SW982, 0.00017 µM | 1.02 ± 0.045
SW982, 0.00051 µM | 1.05 ± 0.047
SW982, 0.00152 µM | 1.06 ± 0.015
SW982, 0.00457 µM | 1.07 ± 0.012
SW982, 0.01372 µM | 1.05 ± 0.021
SW982, 0.04115 µM | 1.05 ± 0.039
SW982, 0.1235 µM | 1.06 ± 0.04
SW982, 0.3704 µM | 1.05 ± 0.055
SW982, 1.111 µM | 1.09 ± 0.044
SW982, 3.333 µM | 1.07 ± 0.036
SW982, 10 µM | 1.12 ± 0.021
VA-ES-BJ, 0.00017 µM | 1.07 ± 0.046
VA-ES-BJ, 0.00051 µM | 1.068 ± 0.0055
VA-ES-BJ, 0.00152 µM | 1.07 ± 0.026
VA-ES-BJ, 0.00457 µM | 1.06 ± 0.035
VA-ES-BJ, 0.01372 µM | 1.05 ± 0.037
VA-ES-BJ, 0.04115 µM | 1.04 ± 0.026
VA-ES-BJ, 0.1235 µM | 1.06 ± 0.036
VA-ES-BJ, 0.3704 µM | 1.04 ± 0.064
VA-ES-BJ, 1.111 µM | 1.03 ± 0.047
VA-ES-BJ, 3.333 µM | 1.03 ± 0.04
VA-ES-BJ, 10 µM | 1.05 ± 0.02
